Molecules are shown by their SMILES.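 A five-concentration, 48-hour dose response in 96-well plates underlies each endpoint, interpolated linearly between surrounding concentrations. The concentration for 50% growth inhibition is given as GI50.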 Active and inactive are the calls of the source. Cut-off read from the data, not from the text of the source: active = GI50 up to about 1.1 µM and inactive = higher.

Among the test systems are KM-20L2; RXF 631; DLD-1; XF498; SNB-78; M19-MEL; HOP-18; DMS-273; BT-549.
What all share (test): NCI anticancer screen, dose series, 48 h

On to `CN1C[C@@H]2CC(=O)CC[C@@H]2C[C@H]1C#N`, for which the GI50 in the assay on KM-20L2, in the assay with RXF 631, with DLD-1 and in the assay with XF498 was > 100 µM (inactive) each time.

For `Cc1cc2c(=O)cc(-c3ccc(C(=O)O)cc3)oc2c(C(=O)O)c1C`, the GI50 in the assay with KM-20L2, with SNB-78, in the assay with M19-MEL, with HOP-18, with RXF 631 and in the assay on DMS-273 was > 100 µM (inactive) throughout. In addition, the GI50 in the assay with DLD-1 is > 100 µM (inactive).

With `COc1ccc(Br)c(N/N=C2\CCCNC2=O)c1`, the GI50 in the assay with KM-20L2 was > 100 µM (inactive); in the assay on SNB-78, > 100 µM (inactive); with M19-MEL, > 100 µM (inactive); with HOP-18 it was 39.6 µM (inactive); in the assay with RXF 631 it was > 100 µM (inactive); in the assay on DMS-273 it was > 100 µM (inactive). The GI50 in the assay on DLD-1 was > 100 µM (inactive); in the assay on XF498 it was 69.2 µM (inactive).

On to `CCOC(=O)C1=C(NC(C)(C)C)OCC1=O`, for which the GI50 with KM-20L2, in the assay with SNB-78, in the assay with RXF 631, in the assay on DLD-1 and in the assay with XF498 was > 100 µM (inactive) each time.

As for `C[C@]12CCC[C@H](O)[C@H]1C[C@H](CO)CC2`, the GI50 with KM-20L2, in the assay on M19-MEL, with HOP-18, in the assay on RXF 631, in the assay on DMS-273 and in the assay with DLD-1 was > 100 µM (inactive) in each case. In addition, the GI50 with XF498 was > 100 µM (inactive).

On to `COC(=O)[C@@]12C=CC(=O)[C@H]3C[C@@H](C(C(C)C)C1)[C@]32OC` (stereo partly drawn), for which the GI50 with KM-20L2, with SNB-78, with M19-MEL, in the assay with HOP-18, in the assay on RXF 631 and in the assay on DMS-273 was > 100 µM (inactive) throughout. In addition, the GI50 with DLD-1 and in the assay with XF498 was > 100 µM (inactive) each time.

For `N#Cc1ccccc1Nc1ccccc1S`, the GI50 is 37.6 µM (inactive) in the assay with SNB-78; 39.4 µM (inactive) in the assay on M19-MEL; 89.7 µM (inactive) in the assay with HOP-18; 37.8 µM (inactive) in the assay with RXF 631; 34.5 µM (inactive) in the assay on DMS-273; 35.6 µM (inactive) in the assay on DLD-1. Moreover, the GI50 with XF498 is 18 µM (inactive).

Turning to `COC1C(O)C(C)OC(OC2C(Oc3cccc4c(O)c5c(=O)oc6ccc(C)c7c(=O)oc(c34)c5c67)OC(C)C3O[C@H](c4ccccc4)OC32)C1O` (stereo partly drawn), the GI50 was 0.055 µM (active) in the assay with KM-20L2; 0.875 µM (active) in the assay with SNB-78; 0.156 µM (active) in the assay with M19-MEL; 1.05 µM (active) with HOP-18; 0.0314 µM (active) in the assay with RXF 631; 0.0206 µM (active) in the assay on DMS-273. Besides, the GI50 in the assay on DLD-1 is 0.0456 µM (active).

For the compound `COc1ccc(OC)c2c(C(=O)O)c(C(C)c3ccccc3)ccc12` (stereo not drawn), the GI50 in the assay on KM-20L2, with M19-MEL, in the assay with HOP-18, with RXF 631, in the assay with DMS-273 and with DLD-1 was > 100 µM (inactive) throughout.

Turning to `COC(=O)C(=Cc1cc(OC)ccc1OC)C(=O)OC`, the GI50 with SNB-78 was 34.1 µM (inactive); in the assay with M19-MEL, 22 µM (inactive); in the assay on RXF 631, 32 µM (inactive); with DMS-273, 32.3 µM (inactive); with DLD-1, 29 µM (inactive); in the assay with XF498, 25.5 µM (inactive).

Consider `COC1C(N)C(OC2C(Oc3cccc4c(O)c5c(=O)oc6ccc(C)c7c(=O)oc(c34)c5c67)OC(C)C(O)C2(C)O)OC(C)C1O` (stereo not drawn), for which the GI50 is 0.0568 µM (active) with KM-20L2; 0.0394 µM (active) in the assay with SNB-78; 0.0166 µM (active) with M19-MEL; 0.152 µM (active) in the assay with HOP-18; 0.0351 µM (active) in the assay on RXF 631; < 0.01 µM (active) with DMS-273. The GI50 in the assay with BT-549 is 0.0192 µM (active); with DLD-1, 0.0206 µM (active); with XF498 it was < 0.0116 µM (active).

In the case of `CC1(C)SCc2nc3ncccc3n21`, the GI50 with KM-20L2, in the assay with SNB-78, in the assay on M19-MEL, in the assay with RXF 631, in the assay with DLD-1 and with XF498 was > 100 µM (inactive) throughout.

Take `COc1ccc2oc3cccc(NCCN(C)C)c3c(=O)c2c1`: the GI50 in the assay with KM-20L2 was 9.14 µM (inactive); in the assay with SNB-78, 17.7 µM (inactive); in the assay with M19-MEL, 15.3 µM (inactive); with HOP-18, 11.6 µM (inactive); in the assay on RXF 631 it was 13.7 µM (inactive); in the assay on DMS-273 it was 12.1 µM (inactive). The GI50 with DLD-1 was 13.1 µM (inactive); with XF498 it was 14.5 µM (inactive).

For `COC(=O)C(C(=O)C(=O)Nc1ccc(Br)cc1)c1nc2ccc(Cl)cc2nc1O` (stereo not drawn), the GI50 with KM-20L2 was > 100 µM (inactive); in the assay on SNB-78 it was > 100 µM (inactive); in the assay with M19-MEL, > 100 µM (inactive); in the assay on HOP-18 it was > 100 µM (inactive); with RXF 631, > 100 µM (inactive); in the assay with DMS-273, > 70.6 µM (inactive). Also, the GI50 in the assay with DLD-1 and with XF498 was > 100 µM (inactive) throughout.

For the compound `CC(C)(C)C1=CC(=NNC(=S)NCc2ccccc2)C=C(C(C)(C)C)C1=O`, the GI50 is > 100 µM (inactive) in the assay with KM-20L2; 98.4 µM (inactive) with M19-MEL; > 100 µM (inactive) with RXF 631; > 100 µM (inactive) in the assay on DMS-273; 59.6 µM (inactive) in the assay on DLD-1; > 100 µM (inactive) in the assay on XF498.

As to `Cn1c(=O)nc2n(-c3ccc(Cl)cc3)c3cc(Cl)ccc3nc-2c1=O`, the GI50 was 3.44 µM (inactive) in the assay on KM-20L2; > 37.9 µM (inactive) in the assay with SNB-78; 1.75 µM (inactive) in the assay with M19-MEL; 14.9 µM (inactive) in the assay on HOP-18; 1.97 µM (inactive) in the assay with RXF 631; 3.56 µM (inactive) with DMS-273. Also, the GI50 in the assay with BT-549 is 4.12 µM (inactive); in the assay with DLD-1, 1.79 µM (inactive); in the assay with XF498 it was 1.41 µM (inactive).

Take `CCOC(OCC)C(CC)[Se]c1ccccc1` (stereo not drawn): the GI50 was 19.5 µM (inactive) in the assay on KM-20L2; 64.3 µM (inactive) with SNB-78; 19.3 µM (inactive) in the assay with M19-MEL; 65.2 µM (inactive) in the assay on HOP-18; 8.49 µM (inactive) in the assay with RXF 631; 14.1 µM (inactive) in the assay with DMS-273. For the same compound, the GI50 in the assay with DLD-1 and in the assay with XF498 was > 100 µM (inactive) in each case.

For `C=CCc1cc2cccc(OC)c2oc1=O`, the GI50 in the assay with KM-20L2 was > 100 µM (inactive); in the assay on SNB-78, > 100 µM (inactive); with M19-MEL, > 100 µM (inactive); with HOP-18 it was 73.6 µM (inactive); in the assay on RXF 631 it was > 100 µM (inactive); in the assay on DMS-273, > 100 µM (inactive). Moreover, the values for the GI50 with DLD-1 and in the assay on XF498 were > 100 µM (inactive) and 7.24 µM (inactive), respectively.

`COc1cc2c(c(OC)c1OC)-c1ccc(SC)c(=O)cc1[C@@H](NC(=O)c1ccc(Cl)cc1)CC2`: the GI50 in the assay with KM-20L2, in the assay with M19-MEL, in the assay on RXF 631, in the assay with DMS-273 and with DLD-1 was < 0.01 µM (active) each time.

For `O=C1CCC2(c3ccccc3)Nc3ccccc3N12` (stereo not drawn), the GI50 in the assay with KM-20L2, in the assay with SNB-78, in the assay on M19-MEL, in the assay with RXF 631, in the assay with DLD-1 and in the assay with XF498 was > 100 µM (inactive) throughout.
